Results: the NIST ThermoML archive (doi:10.1021/je200421s)
Numbers after ± are expanded uncertainties.

Assays:
[1] = mn = molality of the nth substance listed, in mol/kg; conditions: 101 kPa, Liquid, Vibrating tube method
[2] = refractive index (Na D-line) (dimensionless); mn = molality of the nth substance listed, in mol/kg; conditions: 298.15 K, 101 kPa, Liquid, Standard Abbe refractometry

## O=C[C@H](O)[C@@H](O)[C@H](O)[C@H](O)CO [D-glucose] + O
[1]; 288.15 K, m1 = 0.05
  mass density: 1002.58 ± 0.51 kg/m3
[1]; 288.15 K, m1 = 0.1
  mass density: 1006 ± 0.51 kg/m3
[1]; 288.15 K, m1 = 0.2
  mass density: 1012.64 ± 0.51 kg/m3
[1]; 288.15 K, m1 = 0.3
  mass density: 1019.21 ± 0.51 kg/m3
[1]; 288.15 K, m1 = 0.5
  mass density: 1031.87 ± 0.51 kg/m3
[1]; 288.15 K, m1 = 0.8
  mass density: 1050.04 ± 0.51 kg/m3
[1]; 293.15 K, m1 = 0.05
  mass density: 1001.65 ± 0.51 kg/m3
[1]; 293.15 K, m1 = 0.1
  mass density: 1005.04 ± 0.51 kg/m3
[1]; 293.15 K, m1 = 0.2
  mass density: 1011.63 ± 0.51 kg/m3
[1]; 293.15 K, m1 = 0.3
  mass density: 1018.15 ± 0.51 kg/m3
[1]; 293.15 K, m1 = 0.5
  mass density: 1030.73 ± 0.51 kg/m3
[1]; 293.15 K, m1 = 0.8
  mass density: 1048.76 ± 0.51 kg/m3
[1]; 298.15 K, m1 = 0.05
  mass density: 1000.46 ± 0.51 kg/m3
[1]; 298.15 K, m1 = 0.1
  mass density: 1003.84 ± 0.51 kg/m3
[1]; 298.15 K, m1 = 0.2
  mass density: 1010.38 ± 0.51 kg/m3
[1]; 298.15 K, m1 = 0.3
  mass density: 1016.85 ± 0.51 kg/m3
[1]; 298.15 K, m1 = 0.5
  mass density: 1029.34 ± 0.51 kg/m3
[1]; 298.15 K, m1 = 0.8
  mass density: 1047.27 ± 0.51 kg/m3
[1]; 303.15 K, m1 = 0.05
  mass density: 999.043 ± 0.51 kg/m3
[1]; 303.15 K, m1 = 0.1
  mass density: 1002.39 ± 0.51 kg/m3
[1]; 303.15 K, m1 = 0.3
  mass density: 1015.33 ± 0.51 kg/m3
[1]; 303.15 K, m1 = 0.5
  mass density: 1027.75 ± 0.51 kg/m3
[1]; 303.15 K, m1 = 0.8
  mass density: 1045.58 ± 0.51 kg/m3
[1]; 308.15 K, m1 = 0.1
  mass density: 1000.75 ± 0.51 kg/m3
[1]; 308.15 K, m1 = 0.3
  mass density: 1013.63 ± 0.51 kg/m3
[1]; 308.15 K, m1 = 0.5
  mass density: 1025.96 ± 0.51 kg/m3
[1]; 308.15 K, m1 = 0.8
  mass density: 1043.7 ± 0.51 kg/m3
[2]; m1 = 0.05
  refractive index: 1.3331 ± 0.0007
[2]; m1 = 0.1
  refractive index: 1.3343 ± 0.0007
[2]; m1 = 0.2
  refractive index: 1.3368 ± 0.0007
[2]; m1 = 0.3
  refractive index: 1.3392 ± 0.0007
[2]; m1 = 0.5
  refractive index: 1.3443 ± 0.0007
[2]; m1 = 0.8
  refractive index: 1.351 ± 0.0007

## OC[C@H]1O[C@@](CO)(O[C@H]2O[C@H](CO)[C@@H](O)[C@H](O)[C@H]2O)[C@@H](O)[C@@H]1O [D-sucrose] + O
[1]; 288.15 K, m1 = 0.05
  mass density: 1005.67 ± 0.52 kg/m3
[1]; 288.15 K, m1 = 0.1
  mass density: 1012.18 ± 0.52 kg/m3
[1]; 288.15 K, m1 = 0.2
  mass density: 1024.44 ± 0.52 kg/m3
[1]; 288.15 K, m1 = 0.3
  mass density: 1036.52 ± 0.52 kg/m3
[1]; 288.15 K, m1 = 0.5
  mass density: 1059.36 ± 0.51 kg/m3
[1]; 288.15 K, m1 = 0.8
  mass density: 1089.54 ± 0.51 kg/m3
[1]; 293.15 K, m1 = 0.05
  mass density: 1004.73 ± 0.52 kg/m3
[1]; 293.15 K, m1 = 0.1
  mass density: 1011.2 ± 0.52 kg/m3
[1]; 293.15 K, m1 = 0.2
  mass density: 1023.38 ± 0.52 kg/m3
[1]; 293.15 K, m1 = 0.3
  mass density: 1035.39 ± 0.52 kg/m3
[1]; 293.15 K, m1 = 0.5
  mass density: 1058.1 ± 0.51 kg/m3
[1]; 293.15 K, m1 = 0.8
  mass density: 1088.1 ± 0.51 kg/m3
[1]; 298.15 K, m1 = 0.05
  mass density: 1003.53 ± 0.52 kg/m3
[1]; 298.15 K, m1 = 0.1
  mass density: 1009.97 ± 0.52 kg/m3
[1]; 298.15 K, m1 = 0.2
  mass density: 1022.08 ± 0.52 kg/m3
[1]; 298.15 K, m1 = 0.3
  mass density: 1034.03 ± 0.52 kg/m3
[1]; 298.15 K, m1 = 0.5
  mass density: 1056.62 ± 0.51 kg/m3
[1]; 298.15 K, m1 = 0.8
  mass density: 1086.46 ± 0.51 kg/m3
[1]; 303.15 K, m1 = 0.05
  mass density: 1002.11 ± 0.52 kg/m3
[1]; 303.15 K, m1 = 0.1
  mass density: 1008.5 ± 0.52 kg/m3
[1]; 303.15 K, m1 = 0.2
  mass density: 1020.57 ± 0.52 kg/m3
[1]; 303.15 K, m1 = 0.3
  mass density: 1032.45 ± 0.52 kg/m3
[1]; 303.15 K, m1 = 0.5
  mass density: 1054.93 ± 0.51 kg/m3
[1]; 303.15 K, m1 = 0.8
  mass density: 1084.64 ± 0.51 kg/m3
[1]; 308.15 K, m1 = 0.05
  mass density: 1000.46 ± 0.52 kg/m3
[1]; 308.15 K, m1 = 0.1
  mass density: 1006.83 ± 0.52 kg/m3
[1]; 308.15 K, m1 = 0.2
  mass density: 1018.84 ± 0.52 kg/m3
[1]; 308.15 K, m1 = 0.3
  mass density: 1030.68 ± 0.52 kg/m3
[1]; 308.15 K, m1 = 0.5
  mass density: 1053.07 ± 0.51 kg/m3
[1]; 308.15 K, m1 = 0.8
  mass density: 1082.65 ± 0.51 kg/m3
[2]; m1 = 0.05
  refractive index: 1.3343 ± 0.0007
[2]; m1 = 0.1
  refractive index: 1.3368 ± 0.0007
[2]; m1 = 0.2
  refractive index: 1.3415 ± 0.0007
[2]; m1 = 0.3
  refractive index: 1.3458 ± 0.0007
[2]; m1 = 0.5
  refractive index: 1.3542 ± 0.0007
[2]; m1 = 0.8
  refractive index: 1.3656 ± 0.0007

## CC(=O)NCCCCCCNC(C)=O [N,N'-diacetyl-1,6-hexanediamine] + O
[1]; 288.15 K, m1 = 0.0999
  mass density: 1000.16 ± 0.5 kg/m3
[1]; 288.15 K, m1 = 0.1498
  mass density: 1000.68 ± 0.5 kg/m3
[1]; 288.15 K, m1 = 0.1998
  mass density: 1001.23 ± 0.5 kg/m3
[1]; 288.15 K, m1 = 0.25
  mass density: 1001.78 ± 0.5 kg/m3
[1]; 288.15 K, m1 = 0.3001
  mass density: 1002.34 ± 0.5 kg/m3
[1]; 288.15 K, m1 = 0.3503
  mass density: 1002.88 ± 0.5 kg/m3
[1]; 288.15 K, m1 = 0.3984
  mass density: 1003.42 ± 0.5 kg/m3
[1]; 293.15 K, m1 = 0.0999
  mass density: 999.201 ± 0.5 kg/m3
[1]; 293.15 K, m1 = 0.1498
  mass density: 999.691 ± 0.5 kg/m3
[1]; 293.15 K, m1 = 0.1998
  mass density: 1000.2 ± 0.5 kg/m3
[1]; 293.15 K, m1 = 0.25
  mass density: 1000.72 ± 0.5 kg/m3
[1]; 293.15 K, m1 = 0.3001
  mass density: 1001.25 ± 0.5 kg/m3
[1]; 293.15 K, m1 = 0.3503
  mass density: 1001.75 ± 0.5 kg/m3
[1]; 293.15 K, m1 = 0.3984
  mass density: 1002.26 ± 0.5 kg/m3
[1]; 298.15 K, m1 = 0.0999
  mass density: 997.982 ± 0.5 kg/m3
[1]; 298.15 K, m1 = 0.1498
  mass density: 998.441 ± 0.5 kg/m3
[1]; 298.15 K, m1 = 0.1998
  mass density: 998.923 ± 0.5 kg/m3
[1]; 298.15 K, m1 = 0.25
  mass density: 999.415 ± 0.5 kg/m3
[1]; 298.15 K, m1 = 0.3001
  mass density: 999.908 ± 0.5 kg/m3
[1]; 298.15 K, m1 = 0.3503
  mass density: 1000.38 ± 0.5 kg/m3
[1]; 298.15 K, m1 = 0.3984
  mass density: 1000.87 ± 0.5 kg/m3
[1]; 303.15 K, m1 = 0.0999
  mass density: 996.53 ± 0.5 kg/m3
[1]; 303.15 K, m1 = 0.1498
  mass density: 996.965 ± 0.5 kg/m3
[1]; 303.15 K, m1 = 0.1998
  mass density: 997.419 ± 0.5 kg/m3
[1]; 303.15 K, m1 = 0.25
  mass density: 997.884 ± 0.5 kg/m3
[1]; 303.15 K, m1 = 0.3001
  mass density: 998.347 ± 0.5 kg/m3
[1]; 303.15 K, m1 = 0.3503
  mass density: 998.795 ± 0.5 kg/m3
[1]; 303.15 K, m1 = 0.3984
  mass density: 999.248 ± 0.5 kg/m3
[1]; 308.15 K, m1 = 0.0999
  mass density: 994.869 ± 0.5 kg/m3
[1]; 308.15 K, m1 = 0.1498
  mass density: 995.284 ± 0.5 kg/m3
[1]; 308.15 K, m1 = 0.1998
  mass density: 995.708 ± 0.5 kg/m3
[1]; 308.15 K, m1 = 0.25
  mass density: 996.146 ± 0.5 kg/m3
[1]; 308.15 K, m1 = 0.3001
  mass density: 996.58 ± 0.5 kg/m3
[1]; 308.15 K, m1 = 0.3503
  mass density: 997.002 ± 0.5 kg/m3
[1]; 308.15 K, m1 = 0.3984
  mass density: 997.432 ± 0.5 kg/m3
[2]; m1 = 0.0999
  refractive index: 1.335 ± 0.0007
[2]; m1 = 0.1498
  refractive index: 1.3365 ± 0.0007
[2]; m1 = 0.1998
  refractive index: 1.338 ± 0.0007
[2]; m1 = 0.25
  refractive index: 1.3396 ± 0.0007
[2]; m1 = 0.3001
  refractive index: 1.3409 ± 0.0007
[2]; m1 = 0.3503
  refractive index: 1.342 ± 0.0007
[2]; m1 = 0.3984
  refractive index: 1.3433 ± 0.0007

## O [water] + CC(=O)NCCCCCCNC(C)=O
[2]; m2 = 0
  refractive index: 1.332 ± 0.0007
